Measurements taken from US6291527A (priority 1998, dated 2001).
Where a name gives a salt, the structure may show the parent alone.

Legend:
[1] = test system: inflammatory exudate (IE); experiment: foreign body (sponge) method in the rat: inflammatory exudate volume; format: in vivo; conditions: for IE (inflammatory exudate) volume / % inhibition versus controls of IE: oral, 8 hours, listed as KGS; for IE (inflammatory exudate) volume: mean ± MSE, controls 5.15 ± 0.28
Description: (§1) These tests involved the use of 100 male CD strain rats (Charles River, Calco, LC, Italy) weighing 180±8 g. The animals were fasted for 12 hours (water ad libitum) before being used for the experiment.
(§2) The inflammatory reaction with the formation of exudate was induced by using sterilized polyester sponges (4×1.5×0.5 cm) soaked in carrageen dissolved at a 2% concentration in sterile physiological solution. The rats were anesthetized lightly with ether and two sponges per rat were implanted subcutaneously in a previously shaven dorsal area.
(§3) The sponges were removed 8 hours later after having sacrificed the animals by ether euthanasia, and immediately placed in large polyethylene 50 ml test tubes containing 10 ml of heparinized physiological solution. The test tubes were then subjected to centrifugation (1000 rotations; 15 minutes), followed by removal of the sponges and accurate measurement of the volume of the remaining fluid. Always using the Higgs et al. method, the acid lipids present in the fluid were extracted in chloroform with prior dilution in ethanol and acidification to pH 3. After complete evaporation of the chloroform, the remaining dry residue was dissolved in physiological solution and used for the immunoenzymatic assay of prostaglandin E2 (PGE2).
(§4) All the other reagents used for the tests were purchased from Merck-Bracco (Milan, Italy).

prostaglandin E2 (PGE2) = experiment: foreign body (sponge) method in the rat: PGE2 in the inflammatory exudate (immunoenzymatic assay); format: in vivo; conditions: for PGE2 concentration in the inflammatory exudate / % inhibition versus controls of PGE2: oral, 8 hours, listed as KGS; for PGE2 concentration in the inflammatory exudate: mean, controls 98.7 ± 4.7
Description: as §1, §2, §3, §4

[2] = animal studies of the three salts vs Ketoprofen acid and Ketoprofen sodium salt: distribution and kinetics; format: in vivo, experimental animals
Source text: The three above mentioned Ketoprofen salts were compared with Ketoprofen acid and Ketoprofen sodium salt in animal studies.

carrageen edema = carrageen edema test in the rat (hind paw volume, plethysmometer); conditions: for evolution of paw volume (delta in ml) at 1st hour / evolution of paw volume (delta in ml) at 2nd hour / evolution of paw volume (delta in ml) at 3rd hour / evolution of paw volume (delta in ml) at 4th hour / evolution of paw volume (delta in ml) at 5th hour / evolution of paw volume (delta in ml) at 6th hour: mean ± MSE; for % inhibition vs controls (paw edema AUC): p < 0.001; for AUC (mean ± MSE) of increase in paw volume: paw volume (delta in ml) vs time (0 to 6 hours), controls 4.23 ± 0.26
[3] = rat, 0.5, 1, 2 and 4 mg/kg per os
[4] = rat, oral, 1 mg/kg, listed as KGS
[5] = rat, oral, 2 mg/kg, listed as KGS

## CC(C(=O)O)c1cccc(C(=O)c2ccccc2)c1 (stereo not shown) [Ketoprofen Glucosamine salt]
[1]; Rattus norvegicus, po, 8 h, rat, 95% confidence limits KGS 1.802-2.381, KLS 2.334-3.094
  ED50: 2.09 mg/kg
[1]; [3]
  control of the inflammatory response to sponge implantation: controls the vasculo-exudative inflammatory response in a dose dependent manner
[1]; rat, 0.5 mg/kg
  IE (inflammatory exudate) volume: 3.87 ± 0.27 mL
  % inhibition versus controls of IE: 24.8%
[1]; rat, 1 mg/kg
  IE (inflammatory exudate) volume: 3.56 ± 0.28 mL
  % inhibition versus controls of IE: 30.9%
[1]; rat, 2 mg/kg
  IE (inflammatory exudate) volume: 2.53 ± 0.22 mL
  % inhibition versus controls of IE: 50.9%
[1]; rat, 4 mg/kg
  IE (inflammatory exudate) volume: 1.05 ± 0.09 mL
  % inhibition versus controls of IE: 79.6%
Prostaglandin E2 (PGE2); Rattus norvegicus, po, 8 h, rat, 95% confidence limits KGS 1.848-2.131, KLS 2.215-3.005
  ED50: 1.99 mg/kg
Prostaglandin E2 (PGE2); [3]
  inhibition of PGE2 activity in exudates: singificant inhibition of PGE2 activity
Prostaglandin E2 (PGE2); rat, 0.5 mg/kg
  PGE2 concentration in the inflammatory exudate: 67.6 ng/mL
  % inhibition versus controls of PGE2: 31.5%
Prostaglandin E2 (PGE2); rat, 1 mg/kg
  PGE2 concentration in the inflammatory exudate: 60.5 ng/mL
  % inhibition versus controls of PGE2: 38.7%
Prostaglandin E2 (PGE2); rat, 2 mg/kg
  PGE2 concentration in the inflammatory exudate: 49.9 ng/mL
  % inhibition versus controls of PGE2: 49.4%
Prostaglandin E2 (PGE2); rat, 4 mg/kg
  PGE2 concentration in the inflammatory exudate: 24.9 ng/mL
  % inhibition versus controls of PGE2: 74.8%
[2]; injection, vs Ketoprofen sodium salt
  active substance concentration in the inflamed site: much greater than that observed with Ketoprofen sodium salt
[2]; oral, vs Ketoprofen acid and Ketoprofen sodium salt
  kinetic parameters after oral administration: significantly different
Carrageen edema; Rattus norvegicus, po, read-out: oral ED50 (carrageen edema, extrapolated from AUC), rat, oral, 95% conf. lim. KGS 0.733-1.474, KLS 1.198-1.567
  ED50: 1.1 mg/kg
Carrageen edema; rat, oral
  anti-inflammatory / anti-edematogenic effect: dose-dependent
Carrageen edema; rat, oral 0.5, 1 and 2 mg/kg
  anti-inflammatory activity compared with Ketoprofen Lysine salt: comparable
Carrageen edema; rat, oral, 0.5 mg/kg, controls 0.40 ± 0.02, listed as KGS
  evolution of paw volume (delta in ml) at 1st hour: 0.28 ± 0.02 mL
Carrageen edema; rat, oral, 0.5 mg/kg, controls 0.71 ± 0.02, listed as KGS
  evolution of paw volume (delta in ml) at 2nd hour: 0.51 ± 0.03 mL
Carrageen edema; rat, oral, 0.5 mg/kg, controls 0.87 ± 0.03, listed as KGS
  evolution of paw volume (delta in ml) at 3rd hour: 0.62 ± 0.04 mL
Carrageen edema; rat, oral, 0.5 mg/kg, controls 0.93 ± 0.03, listed as KGS
  evolution of paw volume (delta in ml) at 4th hour: 0.65 ± 0.04 mL
Carrageen edema; rat, oral, 0.5 mg/kg, controls 0.90 ± 0.04, listed as KGS
  evolution of paw volume (delta in ml) at 5th hour: 0.62 ± 0.05 mL
Carrageen edema; rat, oral, 0.5 mg/kg, controls 0.84 ± 0.04, listed as KGS
  evolution of paw volume (delta in ml) at 6th hour: 0.56 ± 0.05 mL
Carrageen edema; rat, oral, 0.5 mg/kg
  % inhibition vs controls (paw edema AUC): 30%
Carrageen edema; rat, oral, 0.5 mg/kg, listed as KGS
  % inhibition vs controls (paw edema AUC): 30.0%
Carrageen edema; rat, oral, 0.5 mg/kg, listed as KGS, 0.5 mg/kg
  AUC (mean ± MSE) of increase in paw volume: 2.96 ± 0.15
Carrageen edema; [4]
  evolution of paw volume (delta in ml) at 1st hour: 0.23 ± 0.01 mL
  evolution of paw volume (delta in ml) at 2nd hour: 0.39 ± 0.02 mL
  evolution of paw volume (delta in ml) at 3rd hour: 0.46 ± 0.02 mL
  evolution of paw volume (delta in ml) at 4th hour: 0.48 ± 0.02 mL
  evolution of paw volume (delta in ml) at 5th hour: 0.45 ± 0.02 mL
  evolution of paw volume (delta in ml) at 6th hour: 0.39 ± 0.03 mL
  % inhibition vs controls (paw edema AUC): 48.0%
Carrageen edema; rat, oral, 1 mg/kg
  % inhibition vs controls (paw edema AUC): 48%
Carrageen edema; rat, oral, 1 mg/kg, listed as KGS, 1 mg/kg
  AUC (mean ± MSE) of increase in paw volume: 2.20 ± 0.13
Carrageen edema; [5]
  evolution of paw volume (delta in ml) at 1st hour: 0.11 ± 0.02 mL
  evolution of paw volume (delta in ml) at 2nd hour: 0.20 ± 0.02 mL
  evolution of paw volume (delta in ml) at 3rd hour: 0.26 ± 0.03 mL
  evolution of paw volume (delta in ml) at 4th hour: 0.28 ± 0.03 mL
  evolution of paw volume (delta in ml) at 5th hour: 0.25 ± 0.03 mL
  evolution of paw volume (delta in ml) at 6th hour: 0.16 ± 0.02 mL
  % inhibition vs controls (paw edema AUC): 72.1%
Carrageen edema; rat, oral, 2 mg/kg
  % inhibition vs controls (paw edema AUC): 72%
Carrageen edema; rat, oral, 2 mg/kg, listed as KGS, 2 mg/kg
  AUC (mean ± MSE) of increase in paw volume: 1.18 ± 0.06
